Test results published in ChEMBL document CHEMBL1126226, “The discovery of a new structural class of potent orally active leukotriene D4 antagonists” (Bioorg Med Chem Lett, 1992).

Experiments:
[1] = biological target: T1, Cysteinyl leukotriene receptor 1 (Cavia porcellus, UniProt Q2NNR5); experiment: Inhibitory concentration against [3H]Leukotriene D4 binding to guinea-pig lung membranes was determined; format: tissue-based, Membrane
T1 sequence (Q2NNR5 whole entry): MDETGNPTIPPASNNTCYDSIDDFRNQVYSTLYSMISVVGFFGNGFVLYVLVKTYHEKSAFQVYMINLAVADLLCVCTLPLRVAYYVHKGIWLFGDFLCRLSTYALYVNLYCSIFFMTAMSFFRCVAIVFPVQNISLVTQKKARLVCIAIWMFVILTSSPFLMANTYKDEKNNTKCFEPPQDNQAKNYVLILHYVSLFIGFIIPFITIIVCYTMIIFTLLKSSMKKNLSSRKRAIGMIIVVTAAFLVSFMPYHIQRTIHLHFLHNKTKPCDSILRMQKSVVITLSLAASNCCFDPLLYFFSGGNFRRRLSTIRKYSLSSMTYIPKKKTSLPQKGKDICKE

[2] = Plasma clearance was estimated from the AUC after 5 mg/kg intravenous dosing in rats; format: ADME, organism-based; design: dose 5 mg/kg, route intravenous; conditions: rat
[3] = biological target: T1, Cysteinyl leukotriene receptor 1; experiment: Inhibitory concentration against [3H]Leukotriene D4 binding to guinea-pig lung membranes was determined; experiment 1; format: tissue-based, Membrane
[4] = biological target: T1, Cysteinyl leukotriene receptor 1; experiment: Inhibitory concentration against [3H]Leukotriene D4 binding to guinea-pig lung membranes was determined; experiment 2; format: tissue-based, Membrane
Rattus norvegicus [5] = experiment: Percent inhibition of Antigen induced dyspnea in hyperactive rats by the compound at 0.5 mg/kg concentration was determined; format: functional
[6] = biological target: T1, Cysteinyl leukotriene receptor 1; experiment: Inhibition of Leukotriene D4 induced contraction of guinea-pig trachea was determined; format: functional, tissue-based; conditions: read-out: pA2 (converted)
Mus musculus [7] = experiment: The compound was tested for average percentage increase of fatty acyl Co-A oxidase activity after 4 days of dosing in mice at 400 mg/kg peroral administration; format: functional; conditions: route oral
[8] = biological target: T1, Cysteinyl leukotriene receptor 1; experiment: Inhibitory concentration against [3H]Leukotriene D4 binding to guinea-pig lung membranes was determined (Experiment 2); format: tissue-based, Membrane
[9] = biological target: T1, Cysteinyl leukotriene receptor 1; experiment: Inhibitory concentration against [3H]Leukotriene D4 binding to guinea-pig lung membranes was determined (Experiment 1); format: tissue-based, Membrane
Mus musculus [10] = experiment: The compound was tested for average percentage increase of fatty acyl Co-A oxidase activity after 4 days of dosing mice at 400 mg/kg peroral administration; format: functional; conditions: route oral
[11] = The apparent total plasma clearance in monkey; format: ADME, organism-based; conditions: cercopithecidae
Rattus norvegicus [12] = experiment: Percent inhibition of Antigen induced dyspnea in hyperractive rats by the compound at 0.5 mg/kg concentration was determined after peroral administration, 2 hr pretreatment; format: functional; conditions: route oral
Cavia porcellus = experiment: Effective dose in guinea pig on intravenous administration; format: functional
Monkey [13] = experiment: Inhibition of Leukotriene D4 induced bronchoconstriction in squirrel monkey, 4 hr pretreatment at 0.1 mg/kg peroral administration; format: functional; conditions: in Primates, route oral
Mus musculus [14] = experiment: The compound was tested for average percentage increase of fatty acyl Co-A oxidase activity after 4 days of dosing in mice at 100 mg/kg peroral administration; format: functional; conditions: route oral
Monkey [15] = experiment: Inhibition of Leukotriene D4 induced bronchoconstriction in squirrel monkey, 4 hr pretreatment, 0.1 mg/kg peroral administration; format: functional; conditions: in Primates, route oral

Row | SMILES | IC50 [1] | clearance [2] | IC50 [3] | IC50 [4] | further results
1 | O=C([O-])CCSC(CCc1ccccc1-c1nc[nH]n1)c1cccc(OCc2ccc3ccc(Cl)cc3n2)c1.[Na+] (stereo not drawn) | 0.36 nM | 64 mL/min/kg | – | – | –
2 | CC(CSC(CCc1ccccc1C(C)(C)O)c1cccc(OCc2ccc3ccc(Cl)cc3n2)c1)C(=O)[O-].[Na+] (stereo not drawn) | – | 12 mL/min/kg | 0.5 nM | 0.85 nM | –
3 | CCC(CSC(CCc1ccccc1C(N)=O)c1cccc(OCc2ccc3ccc(Cl)cc3n2)c1)C(=O)[O-].[Na+] (stereo not drawn) | 0.47 nM | 58 mL/min/kg | – | – | –
4 | CCC(CSC(CCc1ccccc1-c1nnnn1C)c1cccc(OCc2ccc3ccc(Cl)cc3n2)c1)C(=O)[O-].[Na+] (stereo not drawn) | 0.4 nM | 18 mL/min/kg | – | – | –
5 | C[C@H](CS[C@H](CCc1ccccc1C(C)(C)O)c1cccc(OCc2ccc3ccc(Cl)cc3n2)c1)C(=O)[O-].[Na+] | – | – | 2 nM | 4 nM | inhibition in vivo at 0.5 mg/kg (Rattus norvegicus [5]): 62%; Kb [6]: 0.794 nM; FACO Activity (Mus musculus [7]): 128%
6 | CCC(CSC(CCc1ccccc1S(C)(=O)=O)c1cccc(OCc2ccc3ccc(Cl)cc3n2)c1)C(=O)[O-].[Na+] (stereo not drawn) | – | 35 mL/min/kg | 0.6 nM | 1 nM | –
7 | CC(CSC(CCc1ccccc1[N+](=O)[O-])c1cccc(OCc2ccc3ccc(Cl)cc3n2)c1)C(=O)[O-].[Na+] (stereo not drawn) | – | 12 mL/min/kg | 0.4 nM | 0.49 nM | –
8 | CN(C)C(=O)CCSC(SCCC(=O)O)c1cccc(CCc2ccc3ccc(Cl)cc3n2)c1 (stereo not drawn) | – | – | – | – | IC50 [8]: 36 nM; IC50 [9]: 26 nM
9 | CC(CSC(CCc1ccccc1C(C)C)c1cccc(OCc2ccc3ccc(Cl)cc3n2)c1)C(=O)[O-].[Na+] (stereo not drawn) | 6.3 nM | 2.2 mL/min/kg | – | – | –
10 | CS(=O)(=O)Nc1ccccc1CCC(SCCC(=O)[O-])c1cccc(OCc2ccc3ccc(Cl)cc3n2)c1.[Na+] (stereo not drawn) | – | 131 mL/min/kg | 0.56 nM | 0.6 nM | –
11 | C[C@H](CS[C@@H](CCc1ccccc1C(C)(C)O)c1cccc(OCc2ccc3ccc(Cl)cc3n2)c1)C(=O)[O-].[Na+] | – | – | 17 nM | 20 nM | inhibition in vivo at 0.5 mg/kg (Rattus norvegicus [5]): 47%; Kb [6]: 5.01 nM; FACO Activity (Mus musculus [10]): 10%
12 | C[C@@H](CS[C@H](CCc1ccccc1C(C)(C)O)c1cccc(OCc2ccc3ccc(Cl)cc3n2)c1)C(=O)[O-].[Na+] | – | – | 0.2 nM | 0.3 nM | inhibition in vivo at 0.5 mg/kg (Rattus norvegicus [5]): 63%; Kb [6]: 0.398 nM; FACO Activity (Mus musculus [7]): 155%
13 | C[C@@H](CS[C@@H](CCc1ccccc1C(C)(C)O)c1cccc(OCc2ccc3ccc(Cl)cc3n2)c1)C(=O)[O-].[Na+] | – | – | 5 nM | 7 nM | inhibition in vivo at 0.5 mg/kg (Rattus norvegicus [5]): 46%; Kb [6]: 1.58 nM; FACO Activity (Mus musculus [10]): -7%
14 | CCC(CSC(CCc1ccccc1-c1nn[nH]n1)c1cccc(OCc2ccc3ccc(Cl)cc3n2)c1)C(=O)[O-].[Na+] (stereo not drawn) | – | 61 mL/min/kg | 0.8 nM | 0.5 nM | –
15 | O=C([O-])CCSC(CCc1ccccc1C(=O)N1CCCCC1)c1cccc(OCc2ccc3ccc(Cl)cc3n2)c1.[Na+] (stereo not drawn) | 0.6 nM | 55 mL/min/kg | – | – | –
16 | CCOC(=O)Nc1ccccc1CCC(SCC(CC)C(=O)[O-])c1cccc(CCc2ccc3ccc(Cl)cc3n2)c1.[Na+] (stereo not drawn) | – | 8.8 mL/min/kg | 0.5 nM | 0.6 nM | –
17 | CCNC(=O)c1ccccc1CCC(SCC(CC)C(=O)[O-])c1cccc(OCc2ccc3ccc(Cl)cc3n2)c1.[Na+] (stereo not drawn) | 0.45 nM | 106 mL/min/kg | – | – | –
18 | CCC(CSC(CCc1ccccc1C#N)c1cccc(CCc2ccc3ccc(Cl)cc3n2)c1)C(=O)[O-].[Na+] (stereo not drawn) | 1 nM | 13 mL/min/kg | – | – | –
19 | CCC(CSC(CCc1ccccc1C(=O)NS(=O)(=O)c1ccccc1C)c1cccc(OCc2ccc3ccc(Cl)cc3n2)c1)C(=O)[O-].[Na+] (stereo not drawn) | – | 15 mL/min/kg | 1.4 nM | 6.5 nM | –
20 | CCC[C@H](CS[C@@H](CCc1ccccc1C(C)(C)O)c1cccc(/C=C/c2ccc3ccc(Cl)cc3n2)c1)C(=O)O [L-695499] | 0.9 nM | – | – | – | ED50 (Cavia porcellus): 2 µg/kg; inhibition in vivo at 0.1 mg/kg (Monkey [13]): 72%; Kb [6]: 1.58 nM; FACO Activity (Mus musculus [14]): 38%

More lines, main results first:

Row | IC50 [1] | clearance [2] | IC50 [3] | IC50 [4] | SMILES | further results
21 | 0.52 nM | – | – | – | CC(CSC(CCc1ccccc1C(=O)N(C)C)c1cccc(OCc2ccc3ccc(Cl)cc3n2)c1)C(=O)O (stereo not drawn) | –
22 | – | 106 mL/min/kg | 0.4 nM | 0.6 nM | NS(=O)(=O)c1ccccc1CCC(SCCC(=O)[O-])c1cccc(OCc2ccc3ccc(Cl)cc3n2)c1.[Na+] (stereo not drawn) | –
23 | 6.5 nM | 2.9 mL/min/kg | – | – | O=C([O-])CCSC(CCc1ccccc1)c1cccc(OCc2ccc3ccc(Cl)cc3n2)c1.[Na+] (stereo not drawn) | –
24 | 8.6 nM | – | – | – | CC(CCC(SCCC(=O)O)c1cccc(OCc2ccc3ccc(Cl)cc3n2)c1)CC(=O)N(C)C (stereo not drawn) | –
25 | 75 nM | – | – | – | CN(C)C(=O)CCSC(SCCC(=O)O)c1cccc(SCc2ccc3ccc(Cl)cc3n2)c1 (stereo not drawn) | –
26 | 1.3 nM | – | – | – | CC(CCC(SCCC(=O)O)c1cccc(/C=C/c2ccc3ccc(Cl)cc3n2)c1)CC(=O)N(C)C (stereo not drawn) | –
27 | 0.95 nM | 64 mL/min/kg | – | – | CN(C)C(=O)c1ccccc1CCC(SCCC(=O)[O-])c1cccc(OCc2ccc3ccc(Cl)cc3n2)c1.[Na+] (stereo not drawn) | –
28 | 3.6 nM | – | – | – | CC(CSC(CCc1ccccc1C(=O)N(C)CO)c1cccc(OCc2ccc3ccc(Cl)cc3n2)c1)C(=O)O (stereo not drawn) | –
29 | 14 nM | – | – | – | CN(C)C(=O)CCSC(SCCC(=O)O)c1cccc(OCc2ccc3ccc(Cl)cc3n2)c1 (stereo not drawn) | –
30 | 0.95 nM | – | – | – | CN(C)C(=O)c1ccccc1CCC(SCCC(=O)O)c1cccc(OCc2ccc3ccc(Cl)cc3n2)c1 (stereo not drawn) | –
31 | – | 8.8 mL/min/kg | 2 nM | 1 nM | CCC(CSC(CCc1ccccc1C(=O)O)c1cccc(OCc2ccc3ccc(Cl)cc3n2)c1)C(=O)[O-].[Na+] (stereo not drawn) | –
32 | 1.9 nM | – | – | – | CN(C)C(=O)CCSC(CCc1ccccc1C(=O)O)c1cccc(OCc2ccc3ccc(Cl)cc3n2)c1 (stereo not drawn) | clearance [11]: 15 mL/min/kg; inhibition in vivo at 0.5 mg/kg (Rattus norvegicus [12]): 54%
33 | 3.9 nM | – | – | – | CN(C)C(=O)CCS[C@H](SCCC(=O)O)c1cccc(/C=C/c2ccc3ccc(Cl)cc3n2)c1 [MK-571] | inhibition in vivo at 0.1 mg/kg (Monkey [15]): 60%; ED50 (Cavia porcellus): 2.8 µg/kg; Kb [6]: 1.58 nM; FACO Activity (Mus musculus [7]): 62%; clearance [11]: 1.2 mL/min/kg
